Like-named read-outs stand apart in the source and are kept apart here.
Tests used:
[1] = target: GDP-bound KRAS wild-type protein (Homo sapiens, UniProt P01116); assay: Binding to KRAS by surface plasmon resonance (SPR), Single Cycle Kinetics; settings: GDP-bound KRAS wild-type protein, read-out: KRAS KD
[2] = target: GDP-bound NRAS wild-type protein (Homo sapiens, UniProt P01111); assay: Binding to NRAS by surface plasmon resonance (SPR), Single Cycle Kinetics; settings: for NRAS/KRAS (ratio of KD value with respect to GDP-bound NRAS wild-type protein to KD value with respect to KRAS): SPR KD ratio NRAS/KRAS, class symbols; for NRAS/KRAS (ratio of KD value for NRAS to KD value for KRAS): GDP-bound NRAS wild-type protein vs GDP-bound KRAS wild-type protein
[3] = target: GDP-bound HRAS wild-type protein (Homo sapiens, UniProt P01112); assay: Binding to HRAS by surface plasmon resonance (SPR), Single Cycle Kinetics; settings: for HRAS/KRAS (ratio of KD value with respect to GDP-bound HRAS wild-type protein to KD value with respect to KRAS): SPR KD ratio HRAS/KRAS, class symbols; for HRAS/KRAS (ratio of KD value for HRAS to KD value for KRAS): GDP-bound HRAS wild-type protein vs GDP-bound KRAS wild-type protein
[4] = system: human lung cancer strain NCI-H441;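 note: cell proliferation inhibition after four days measured by CellTiter-Glo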
[5] = SPR Single Cycle Kinetics, 1:1 binding model

Sequence of GDP-bound KRAS wild-type protein (P01116 whole entry): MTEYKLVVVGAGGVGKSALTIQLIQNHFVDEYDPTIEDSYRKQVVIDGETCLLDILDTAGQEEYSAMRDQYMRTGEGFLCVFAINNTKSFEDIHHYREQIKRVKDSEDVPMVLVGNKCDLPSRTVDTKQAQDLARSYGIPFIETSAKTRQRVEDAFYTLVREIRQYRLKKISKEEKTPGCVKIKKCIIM
Sequence of GDP-bound HRAS wild-type protein (P01112 whole entry): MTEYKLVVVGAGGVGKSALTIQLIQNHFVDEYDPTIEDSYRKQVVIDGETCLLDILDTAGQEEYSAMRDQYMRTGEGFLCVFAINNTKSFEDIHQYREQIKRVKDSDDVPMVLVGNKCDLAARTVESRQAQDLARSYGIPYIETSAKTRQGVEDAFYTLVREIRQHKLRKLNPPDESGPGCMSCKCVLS
Sequence of GDP-bound NRAS wild-type protein (P01111 whole entry): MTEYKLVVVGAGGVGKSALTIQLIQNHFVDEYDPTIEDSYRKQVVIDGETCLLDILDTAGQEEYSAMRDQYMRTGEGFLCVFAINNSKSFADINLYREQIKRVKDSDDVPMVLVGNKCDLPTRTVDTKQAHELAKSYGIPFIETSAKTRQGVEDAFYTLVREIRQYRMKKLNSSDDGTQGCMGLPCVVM

Row | Compound | Kd [1, 5] [nM] | NRAS/KRAS (ratio of KD value with respect to GDP-bound NRAS wild-type protein to KD value with respect to KRAS) [2] | HRAS/KRAS (ratio of KD value with respect to GDP-bound HRAS wild-type protein to KD value with respect to KRAS) [3] | IC50 [4] [nM] | Kd ([1]; SPR, Single Cycle Kinetics) [nM] | NRAS/KRAS (ratio of KD value for NRAS to KD value for KRAS) ([2]; SPR) | HRAS/KRAS (ratio of KD value for HRAS to KD value for KRAS) ([3]; SPR) | further results
1 | CCC[C@H]1C(=O)N[C@@H]([C@@H](C)CC)C(=O)N(C2CC2)CC(=O)N(C)[C@H]2C/C=C\CCN(C2=O)[C@@H](Cc2ccc(C)cc2)C(=O)N(C)CC(=O)N[C@@H](CCc2ccc(C(F)(F)F)c(OC)c2)C(=O)N2C[C@H](OCC)C[C@H]2C(=O)NC2(CC(C)(C)C2)C(=O)N(C)[C@@H](CC(C)(C)C)C(=O)N(C)[C@H](C(=O)N(C)C)CC(=O)N1C [PP2722] | 0.4 | B (a compound having 3 or more and less than 10 is denoted as B) | B (a compound having 3 or more and less than 10 is denoted as B) | 13.9 |  |  |  | 
2 | CCC[C@H]1C(=O)N[C@@H]([C@@H](C)CC)C(=O)N(C)CC(=O)N(C)[C@H]2C/C=C\CCN(C2=O)[C@@H](Cc2ccc(C)cc2)C(=O)N(C)CC(=O)N[C@@H](CCc2cc(F)c(C(F)(F)F)c(F)c2)C(=O)N2C[C@H](OCC)C[C@H]2C(=O)NC2(CC(C)(C)C2)C(=O)N(C)[C@@H](CC2CCC2)C(=O)N(C)[C@H](C(=O)N(C)C)CC(=O)N1C [PP2751] | 0.85 | A (a compound having 10 or more and less than 20 is denoted as A) | A (a compound having 10 or more and less than 20 is denoted as A) | 39.3 |  |  |  | 
3 | CCC(CC)[C@H]1C(=O)N(C)[C@H](C(=O)N(C)C)CC(=O)N(C)[C@@H](COC)C(=O)N[C@@H]([C@@H](C)CC)C(=O)N(C2CC2)CC(=O)N(C)[C@H]2C/C=C\CCN(C2=O)[C@@H](CC2CCC(F)(F)CC2)C(=O)N(C)CC(=O)N[C@@H](CCc2cc(F)c(C(F)(F)F)c(F)c2)C(=O)N2C[C@H](OC(C)C)C[C@H]2C(=O)NC2(CC(C)(C)C2)C(=O)N1C [PP2523] | 1.7 | A (a compound having 10 or more and less than 20 is denoted as A) | A (a compound having 10 or more and less than 20 is denoted as A) | 91.9 |  |  |  | 
4 | CCOC[C@H]1C(=O)N[C@@H]([C@@H](C)CC)C(=O)N(C)CC(=O)N(C)[C@H]2C/C=C\CCN(C2=O)[C@@H](CC2CCC(F)(F)CC2)C(=O)N(C)CC(=O)N[C@@H](CCc2ccc(C(F)(F)F)c(Cl)c2)C(=O)N2C[C@H](OCC)C[C@H]2C(=O)NC2(CC(C)(C)C2)C(=O)N(C)[C@@H](C(CC)CC)C(=O)N(C)[C@H](C(=O)N(C)C)CC(=O)N1C [PP2460] |  |  |  | 18.7 | 0.71 | A (a compound having 10 or more and less than 20 is denoted as A) | A (a compound having 10 or more and less than 20 is denoted as A) | 
5 | CCO[C@@H]1C[C@H]2C(=O)NC3(CC(C)(C)C3)C(=O)N(C)[C@@H](C3CCCC3)C(=O)N(C)[C@H](C(=O)N(C)C)CC(=O)N(C)[C@H]3CCCCCc4ccc(cc4)C[C@@H](C(=O)N(C)CC(=O)N[C@@H](CCc4ccc(Cl)c(Cl)c4)C(=O)N2C1)N1CC/C=C\C[C@@H](C1=O)N(C)C(=O)CN(C)C(=O)[C@H]([C@@H](C)CC)NC3=O [PP3076] |  |  |  |  | 0.059 | AA (a compound having 20 or more is denoted as AA) | A (a compound having 10 or more and less than 20 is denoted as A) | ratio of the KD value with respect to GDP-bound NRAS wild-type protein to the KD value with respect to KRAS ([2]; SPR, KD(NRAS)/KD(KRAS)): AA (a compound having 20 or more is denoted as AA); ratio of the KD value with respect to GDP-bound HRAS wild-type protein to the KD value with respect to KRAS ([3]; SPR, KD(HRAS)/KD(KRAS)): A (a compound having 10 or more and less than 20 is denoted as A); IC50 ([4]; read-out: NCI-H441 cell proliferation inhibitory activity, 50% proliferation inhibitory concentration (IC50 value), NCI-H441, four days, CellTiter-Glo): 4.1 nM
6 | CCC[C@H]1C(=O)N[C@@H]([C@@H](C)CC)C(=O)N(C2CC2)CC(=O)N(C)[C@H]2C/C=C\CCN(C2=O)[C@@H](Cc2ccc(C)cc2)C(=O)N(C)CC(=O)N[C@@H](CCc2ccc(Cl)c(Cl)c2)C(=O)N2C[C@H](OC(C)C)C[C@H]2C(=O)NC2(CC(C)(C)C2)C(=O)N(C)[C@@H](C2CCCC2)C(=O)N(C)[C@H](C(=O)N(C)C)CC(=O)N1C [PP2571] | 1 | A (a compound having 10 or more and less than 20 is denoted as A) | A (a compound having 10 or more and less than 20 is denoted as A) | 76.1 |  |  |  | 
7 | CCO[C@@H]1C[C@H]2C(=O)NC3(CCC3)C(=O)N(C)[C@@H](C3CCCC3)C(=O)N(C)[C@H](C(=O)N(C)C)CC(=O)N(C)[C@@H](Cc3cccs3)C(=O)N[C@@H]([C@@H](C)CC)C(=O)N(C)CC(=O)N(C)[C@H]3CCCCCN(C3=O)[C@@H](Cc3ccc(C(F)(F)F)cc3)C(=O)N(C)CC(=O)N[C@@H](CCc3cc(F)c(C(F)(F)F)c(F)c3)C(=O)N2C1 [PP1169] |  |  |  | 74 | 0.32 | B (a compound having 3 or more and less than 10 is denoted as B) | B (a compound having 3 or more and less than 10 is denoted as B) | 
8 | CCO[C@@H]1C[C@H]2C(=O)NC3(CCC3)C(=O)N(C)[C@@H](C3CCCC3)C(=O)N(C)[C@H](C(=O)N3CCC3)CC(=O)N(C)[C@@H](CC)C(=O)N[C@@H]([C@@H](C)CC)C(=O)N(C)CC(=O)N(C)[C@H]3C/C=C\CCN(C3=O)[C@@H](CC3CCC(F)(F)CC3)C(=O)N(C)CC(=O)N[C@@H](CCc3cc(F)c(C(F)(F)F)c(F)c3)C(=O)N2C1 [PP1444] |  |  |  | 103 |  |  |  | Kd ([1]; SPR, Single Cycle Kinetics, 1:1 binding model): 0.19 nM; NRAS/KRAS (ratio of KD value for NRAS to KD value for KRAS) ([2]; SPR, KD ratio class): A (a compound having 10 or more and less than 20 is denoted as A); HRAS/KRAS (ratio of KD value for HRAS to KD value for KRAS) ([3]; SPR, KD ratio class): A (a compound having 10 or more and less than 20 is denoted as A)
9 | CCOC[C@H]1C(=O)N[C@@H]([C@@H](C)CC)C(=O)N(C)CC(=O)N(C)[C@H]2C/C=C\CCN(C2=O)[C@@H](Cc2ccc(C)cc2)C(=O)N(C)CC(=O)N[C@@H](CCc2ccc(C(F)(F)F)c(OC)c2)C(=O)N2C[C@@H](C)C[C@H]2C(=O)NC2(CC(C)(C)C2)C(=O)N(C)[C@@H](C2CCCC2)C(=O)N(C)[C@H](C(=O)N(CC)CC)CC(=O)N1C [PP2405] |  |  |  | 8.6 | 0.31 | A (a compound having 10 or more and less than 20 is denoted as A) | A (a compound having 10 or more and less than 20 is denoted as A) | 
10 | CC[C@H](C)[C@@H]1NC(=O)[C@H](CC)N(C)C(=O)C[C@@H](C(=O)N(C)C)N(C)C(=O)[C@H](C2CCCC2)N(C)C(=O)C2(CCC2)NC(=O)[C@@H]2C[C@@H](C(F)(F)F)CN2C(=O)[C@H](CCc2cc(F)c(C(F)(F)F)c(F)c2)NC(=O)CN(C)C(=O)[C@H](Cc2ccc(C(F)(F)F)cc2)N2CC/C=C\C[C@@H](C2=O)N(C)C(=O)CN(C)C1=O [PP1133, (2S,8S,12R,14S,20S,23S,27S,30S,36S,38Z)-20-cyclopentyl-8-[2-[3,5-difluoro-4-(trifluoromethyl)phenyl]ethyl]-27-ethyl-N,N,4,19,22,26,32,35-octamethyl-30-[(1S)-1-methylpropyl]-3,6,9,15,18,21,25,28,31,34,42-undecaoxo-12-(trifluoromethyl)-2-[[4-(trifluoromethyl)phenyl]methyl]spiro[1,4,7,10,16,19,22,26,29,32,35-undecazatricyclo[34.5.1.0^10,14]dotetracont-38-ene-17,1′-cyclobutane]-23-carboxamide] |  |  |  | 16.5 | 0.05 | A (a compound having 10 or more and less than 20 is denoted as A) | A (a compound having 10 or more and less than 20 is denoted as A) | 
11 | CCC[C@H]1C(=O)N[C@@H]([C@@H](C)CC)C(=O)N2CCC[C@H]2C(=O)N(C)[C@H]2C/C=C\CCN(C2=O)[C@@H](Cc2ccc(C(F)(F)F)cc2)C(=O)N(C)CC(=O)N[C@@H](CCc2ccc(C(F)(F)F)c(OC)c2)C(=O)N2C[C@@H](C)C[C@H]2C(=O)N(C)C2(CCC2)C(=O)N(C)[C@@H](C2CCCC2)C(=O)N(C)[C@H](C(=O)N(C)C)CC(=O)N1C [PP2362] |  |  |  | 4.8 | 0.076 | A (a compound having 10 or more and less than 20 is denoted as A) | A (a compound having 10 or more and less than 20 is denoted as A) | 
